Calls of active or inactive are those of the source. How the calls were made is not given here.
Test system: CCRIS mutagenicity, Ames/micronucleus/aberration tests
Test: CCRIS mutagenicity studies

In the case of C[C@@H]1Cc2c(Cl)cc(C(=O)NC(Cc3ccccc3)C(=O)O)c(O)c2C(=O)O1 (some centres not stated), the mutagenic call (Test System: AMES SALMONELLA TYPHIMURIUM, Strain/Indicator: TA102, Metabolic Activation: RAT, LIVER, S-9, AROCLOR 1254, Method: STANDARD PLATE) is reported as “inactive; negative”, the mutagenic call (Test System: AMES SALMONELLA TYPHIMURIUM, Strain/Indicator: TA104, Metabolic Activation: NONE, Method: PREINCUBATION) is reported as “inactive; negative” and the mutagenic call (Test System: AMES SALMONELLA TYPHIMURIUM, Strain/Indicator: TA104, Metabolic Activation: RAT LIVER S-9, Method: PREINCUBATION) is reported as “inactive; negative”. For the same molecule, the mutagenic call (Test System: AMES SALMONELLA TYPHIMURIUM, Strain/Indicator: TA1535, Metabolic Activation: HAMSTER, LIVER, S-9, AROCLOR 1254 (10 OR 30%), Method: PREINCUBATION) was “inactive; negative”, the mutagenic call (Test System: AMES SALMONELLA TYPHIMURIUM, Strain/Indicator: TA1535, Metabolic Activation: HAMSTER, LIVER, S-9, AROCLOR 1254, Method: PREINCUBATION) was “inactive; negative” and the mutagenic call (Test System: AMES SALMONELLA TYPHIMURIUM, Strain/Indicator: TA1535, Metabolic Activation: MOUSE KIDNEY S-9, NADP OR ARACHIDONIC ACID (10%), Method: MICROMETHOD) was “active; positive”. For the same molecule, the mutagenic call (Test System: AMES SALMONELLA TYPHIMURIUM, Strain/Indicator: TA1535, Metabolic Activation: MOUSE LIVER S-9 (10%), Method: MICROMETHOD) was “inactive; negative”, the mutagenic call (Test System: AMES SALMONELLA TYPHIMURIUM, Strain/Indicator: TA1535, Metabolic Activation: NONE, Method: STANDARD PLATE) was “inactive; negative” and the mutagenic call (Test System: AMES SALMONELLA TYPHIMURIUM, Strain/Indicator: TA1535, Metabolic Activation: RAT LIVER S-9, AROCLOR 1254 (10%), Method: MICROMETHOD) was “inactive; negative”. For the same molecule, the mutagenic call (Test System: AMES SALMONELLA TYPHIMURIUM, Strain/Indicator: TA1535, Metabolic Activation: RAT LIVER S-9, Method: PREINCUBATION) was “inactive; negative”, the mutagenic call (Test System: AMES SALMONELLA TYPHIMURIUM, Strain/Indicator: TA1535, Metabolic Activation: RAT, LIVER, S-9, AROCLOR 1254 (10 OR 30%), Method: PREINCUBATION) was “inactive; negative” and the mutagenic call (Test System: AMES SALMONELLA TYPHIMURIUM, Strain/Indicator: TA1535, Metabolic Activation: RAT, LIVER, S-9, AROCLOR 1254, Method: PREINCUBATION) was “inactive; negative”. The mutagenic call (Test System: AMES SALMONELLA TYPHIMURIUM, Strain/Indicator: TA1535, Metabolic Activation: RAT, LIVER, S-9, AROCLOR 1254, Method: STANDARD PLATE) was “inactive; negative”, the mutagenic call (Test System: AMES SALMONELLA TYPHIMURIUM, Strain/Indicator: TA1537, Metabolic Activation: NONE, Method: PREINCUBATION) was “inactive; negative” and the mutagenic call (Test System: AMES SALMONELLA TYPHIMURIUM, Strain/Indicator: TA1537, Metabolic Activation: NONE, Method: STANDARD PLATE) was “inactive; negative”. The mutagenic call (Test System: AMES SALMONELLA TYPHIMURIUM, Strain/Indicator: TA1537, Metabolic Activation: RAT LIVER S-9, Method: PREINCUBATION) was “inactive; negative”, the mutagenic call (Test System: AMES SALMONELLA TYPHIMURIUM, Strain/Indicator: TA1537, Metabolic Activation: RAT, LIVER, S-9, AROCLOR 1254, Method: STANDARD PLATE) was “inactive; negative” and the mutagenic call (Test System: AMES SALMONELLA TYPHIMURIUM, Strain/Indicator: TA1538, Metabolic Activation: MOUSE KIDNEY S-9, NADP OR ARACHIDONIC ACID (10%), Method: MICROMETHOD) was “active; positive”. The mutagenic call (Test System: AMES SALMONELLA TYPHIMURIUM, Strain/Indicator: TA1538, Metabolic Activation: MOUSE LIVER S-9 (10%), Method: MICROMETHOD) was “inactive; negative”, the mutagenic call (Test System: AMES SALMONELLA TYPHIMURIUM, Strain/Indicator: TA1538, Metabolic Activation: NONE, Method: PREINCUBATION) was “inactive; negative” and the mutagenic call (Test System: AMES SALMONELLA TYPHIMURIUM, Strain/Indicator: TA1538, Metabolic Activation: NONE, Method: STANDARD PLATE) was “inactive; negative”. The mutagenic call (Test System: AMES SALMONELLA TYPHIMURIUM, Strain/Indicator: TA1538, Metabolic Activation: RAT LIVER S-9, AROCLOR 1254 (10%), Method: MICROMETHOD) was “inactive; negative”, the mutagenic call (Test System: AMES SALMONELLA TYPHIMURIUM, Strain/Indicator: TA1538, Metabolic Activation: RAT LIVER S-9, Method: PREINCUBATION) was “inactive; negative” and the mutagenic call (Test System: AMES SALMONELLA TYPHIMURIUM, Strain/Indicator: TA1538, Metabolic Activation: RAT, LIVER, S-9, AROCLOR 1254, Method: STANDARD PLATE) was “inactive; negative”. For the same molecule, the mutagenic call (Test System: CHINESE HAMSTER V-79, Strain/Indicator: V-79(HPRT)/6-THIOGUANINE, Metabolic Activation: NONE) was “inactive; negative”, the mutagenic call (Test System: CHINESE HAMSTER V-79, Strain/Indicator: V-79(HPRT)/6-THIOGUANINE, Metabolic Activation: RAT LIVER S-9) was “inactive; negative” and the mutagenic call (Test System: Chinese hamster lung cells, Strain/Indicator: V79 (HPRT)/6-Thioguanine, Metabolic Activation: None, Method: Standard plate) was “active; positive (weak)”. The mutagenic call (Test System: Chinese hamster lung cells, Strain/Indicator: V79 (HPRT)/6-Thioguanine, Metabolic Activation: Rat, Kidney, S-9 (phenobarbital/beta-naphthoflavone), Method: Standard plate) was “active; positive (weak)”, the mutagenic call (Test System: MOUSE LYMPHOMA, Strain/Indicator: L5178Y (TK+/TK-), Metabolic Activation: NONE, Method: SUSPENSION/PLATE) was “inactive; negative” and the mutagenic call (Test System: MOUSE LYMPHOMA, Strain/Indicator: L5178Y (TK+/TK-), Metabolic Activation: RAT, LIVER, S-9, AROCLOR 1254, Method: SUSPENSION/PLATE) was “inactive; negative”. The mutagenic call (Test System: Mouse lymphoma cells, Strain/Indicator: L5178Y (tk+/tk-), Metabolic Activation: None, Method: Microtiter) was “active; positive (weak)”, the mutagenic call (Test System: Mouse lymphoma cells, Strain/Indicator: L5178Y (tk+/tk-), Metabolic Activation: Rat, Kidney, S-9 (phenobarbital/beta-naphthoflavone), Method: Microtiter) was “active; positive (weak)” and the mutagenic call (Test System: UDS HUMAN INFANT UROTHELIAL CELLS, Strain/Indicator: THY INCORP, Metabolic Activation: NONE, Method: AUTORADIOGRAPHY) was “inactive; negative”. The mutagenic call (Test System: UDS HUMAN UROTHELIAL CELLS, Strain/Indicator: THY INCORP, Metabolic Activation: NONE, Method: AUTORADIOGRAPHY) was “active; positive”, the mutagenic call (Test System: UDS HUMAN UROTHELIAL CELLS, Strain/Indicator: THYMIDINE INCORPORATION, Metabolic Activation: NONE, Method: AUTORADIOGRAPHY) was “active; positive” and the mutagenic call (Test System: UDS PORCINE PRIMARY BLADDER EPITHELIAL CELL, Strain/Indicator: THY INCORP, Metabolic Activation: NONE, Method: AUTORADIOGRAPHY) was “active; positive”. For the same molecule, the mutagenic call (Test System: UDS RODENT PRIMARY CELLS, Metabolic Activation: NONE, Method: AUTORADIOGRAPHY (DNA REPAIR)) was “inactive; negative”.

Reference: PubChem BioAssay AID1259407 (Chemical Carcinogenesis Research Information System (CCRIS), 2018)
